Reference: publication PMC9929232, “On-demand male contraception via acute inhibition of soluble adenylyl cyclase” (Nature Communications, 2023)
Several values for one entry are separate records, joined by “and”; a condition that tells them apart may be missing. Identical values can stand only once.

Experiments:
mouse sperm [1] = assay: Acrosome reaction assay, mouse sperm, zona pellucidae-evoked; assay type: cell-based
Procedure: Zonae pellucidae were isolated from female mice superovulated by intraperitoneal injection of 10 I.U. […] 3 days before the experiment. 14 h before oocyte isolation, mice were injected with 10 I.U. pregnant mare’s serum gonadotropin. Mice were sacrificed by cervical dislocation and oviducts were dissected. Cumulus-enclosed oocytes were separated from the oviducts and placed into TYH buffer containing 300 μg/ml hyaluronidase. After 15 min, cumulus-free oocytes were transferred into fresh buffer and washed twice. Zonae pellucidae and oocytes were separated by shear forces generated by expulsion from […] pasteur pipettes. Zona pellucidae were counted, transferred into fresh buffer, and heat-solubilized by incubation for 10 min at 65 °C.
Acrosome reaction was induced by incubating mouse sperm with 50 mouse solubilized zonae pellucidae for 15 min at 37 °C. Human sperm were incubated with 10 μM progesterone for 30 min at 37 °C. […] Samples were air-dried on microscope slides and fixed for 30 minutes in 100% ethanol at room temperature (RT). For acrosome staining, mouse and human sperm were incubated for 30 min in the dark with 5 μg/ml PNA-FITC or 5 μg/ml PSA-FITC, respectively, and counterstained with 2 μg/ml DAPI. After curing, slides were analyzed using a Zeiss LSM 880 Laser Scanning Confocal Microscope; images were captured with two photomultiplier and one Gallium Arsenide Phosphide detector using ZEN Imaging software. For each condition, at least 600 cells were analyzed using ImageJ 1.52.

epididymal mouse sperm [2] = assay: Ex vivo cAMP generation in epididymal sperm from inhibitor-treated male mice (oral or i.p.)
Procedure: (§2) For capacitation, sperm were incubated for 90 min in TYH containing 3 mg/ml BSA and 25 mM NaHCO3 in a 37 °C incubator. To control for the consequences of dilution during isolation of epididymal mouse sperm for ex vivo assays, we assessed the ability of bicarbonate to induce a prototypical pattern of tyrosine phosphorylation (pY) which is a widely used molecular hallmark of capacitation[53]. […] For experiments studying sperm from injected mice, ‘swim out’ was performed in 200 μl TYH, which corresponded to a 1:10 dilution from epididymis (20 μg cauda in 200 μl buffer). Capacitation-induced changes were assessed by adding 50 µl of ‘swim out’ sperm to increasing volumes of capacitating TYH buffer.
Intracellular cAMP levels were quantified using the Direct cAMP ELISA kit (Enzo) as above.

human sperm [3] = assay: Flagellar beat frequency of tethered human sperm; assay type: cell-based
Procedure: (§1) An inverted dark-field video microscope (IX73; Olympus) with a 10 x objective (mouse sperm) or a 20 x objective (human sperm) (UPLSAPO, NA 0.8; Olympus) was combined with a high-speed camera (ORCA Fusion; Hamamatsu). Dark-field videos were recorded with a frame rate of 200 Hz. The temperature of the heated stage was set to 37 °C (stage top incubator WSKMX; TOKAI HIT). The images were preprocessed with the ImageJ plugin SpermQ Preparator (Gaussian blur with sigma 0.5 px; subtract background method with radius 5 px) and analyzed using the ImageJ plugin SpermQ[57]. The beat frequency was determined from the highest peak in the frequency spectrum of the curvature time course, obtained by Fast Fourier Transform.

mouse sperm [4] = assay: Flagellar beat frequency of tethered mouse sperm; assay type: cell-based
Procedure: as §1

epididymal mouse sperm [5] = assay: Tyrosine phosphorylation (pY) Western blot of sperm from injected mice; settings: 50 mg/kg i.p., 1 hour
Procedure: as §2
Mouse sperm from vehicle- or inhibitor-injected mice were isolated 1 hour post injection from male mice injected (i.p.) with 150 µl of solution containing sAC inhibitor or vehicle. ‘Swim out’ sperm were diluted 1:1 to 1:100 in capacitating TYH media. As control, sperm from vehicle-injected mice were diluted 1:100 in non-capacitating and capacitating TYH buffer. The samples were incubated for 90 min, washed with 1 ml PBS and sedimented by centrifugation at 2000 × g for 3 min. The sedimented sperm were resuspended in 15 μl 2× Laemmli sample buffer, heated for 5 min at 95 °C, supplemented with 8 µl β-mercaptoethanol and heated again for 5 min at 95 °C. For Western blot analysis, proteins were transferred onto PVDF membranes (Thermo Scientific), probed with anti-phosphotyrosine (1:1000, clone 4G10, Merck Millipore) and anti-mouse IgG (1:10,000, Cell Signaling Technology) antibodies, and analyzed using a chemiluminescence detection system. Image lab (Bio-Rad) was used for densitometric analysis of western blots.

epididymal mouse sperm [6] = assay: Ex vivo motility (CASA) of epididymal sperm from inhibitor-treated male mice; assay type: in vivo; set-up: hyperactivated motility (%): concentration or dose not given beside the values
Procedure: Sperm movements of 10 fields of at least 200 sperm were examined using computer-assisted sperm analysis (CASA) via Hamilton–Thorne digital image analyzer (IVOS II, Hamilton Thorne Research, Beverly, MA) with the following parameters: 30 frames, frame rate: 60 Hz, cell size: 30–170 μm^2. Ejaculated uterine mouse sperm were recorded without additional dilution. Sperm were considered motile when presenting STR ≥80% and VAP ≥50 μm/s and hyperactivated when presenting VCL ≥270 μm/s, LIN < 50%, and ALH ≥7 μm. Track´s color code: motile (green), progressive (turquoise), hyperactivated (purple), slow (pink), static (red), not counted due to late entry (yellow).

mouse sperm [7] = assay: cAMP generation in mouse sperm in vitro, incl. wash-out by dilution; settings: 12 minutes
Procedure: For capacitation, sperm were incubated for 90 min in TYH containing 3 mg/ml BSA and 25 mM NaHCO3 in a 37 °C incubator. To control for the consequences of dilution during isolation of epididymal mouse sperm for ex vivo assays, we assessed the ability of bicarbonate to induce a prototypical pattern of tyrosine phosphorylation (pY) which is a widely used molecular hallmark of capacitation[53]. Bicarbonate-induced pY is known to be sAC dependent in vitro[20],[22],[35]. For experiments studying sperm from injected mice, ‘swim out’ was performed in 200 μl TYH, which corresponded to a 1:10 dilution from epididymis (20 μg cauda in 200 μl buffer). Capacitation-induced changes were assessed by adding 50 µl of ‘swim out’ sperm to increasing volumes of capacitating TYH buffer.
cAMP generation was measured in mouse and human sperm. […] For human sperm, aliquots of 2 × 10^6 cells were incubated for 30 min in the presence or absence of sAC inhibitor in non-capacitating or capacitating HTF buffer. In both cases, 0.1% DMSO was used as vehicle control.
After 5 min, 150 µl of sperm/inhibitor mix was diluted into 1.35 ml non-capacitating or capacitating media with no inhibitor. […] Sperm lysates were centrifuged at 2000 × g for 3 min and the cAMP in the supernatant was acetylated and quantified using the Direct cAMP ELISA kit (Enzo).

human sperm [8] = assay: cAMP generation in human sperm in vitro, incl. wash-out by dilution; assay type: cell-based; settings: 30 minutes
Procedure: Samples of human semen were obtained from healthy volunteers with their prior written consent following a protocol approved by Weill Cornell Medicine’s Institutional Review Board (IRB 21-03023495). […] Semen was incubated for 30 min in a 37 °C incubator to liquefy. […] The tubes were incubated at a tilted angle of 45° at 37 °C for 60 min. Motile sperm were allowed to swim up into the HTF layer; immotile sperm and other cells or tissue debris remain in the ejaculate fraction. Up to 3 ml of the HTF layer was transferred to a fresh tube and washed twice in HTF by centrifugation (700 × g, 20 min). The supernatant was removed after the last centrifugation step and the sperm pellet was resuspended in 1 ml HTF. The purity and vitality of each sample was assessed via light microscopy. Sperm cell numbers were determined using a hemocytometer and adjusted to a concentration of 1 × 10^7 cells/ml.

[9] = sheet Fig. 2a replicates, 5 μM TDI-10229 or 10 nM TDI-11861 present
[10] = sheet Fig. 2b replicates, 5 min preincubation in 5 μM TDI-10229 or 10 nM TDI-11861, diluted 1:100 into inhibitor-free media
[11] = sheet Fig. 2c replicates, 5 μM TDI-10229 or 10 nM TDI-11861 present
[12] = sheet Fig. 2d replicates, 5 min preincubation in 5 μM TDI-10229 or 10 nM TDI-11861, diluted 1:100 into inhibitor-free media

Nc1nc(Cl)cc(-c2nn(C(F)F)cc2Cc2ccccc2OCCN2CCOC[C@@H]2CO)n1 [TDI-11861]
toxicity to sperm (rescue of acrosome response by cAMP/IBMX) (mouse sperm [1]): not toxic to sperm
Acrosome reacted (%), basal + db-cAMP/IBMX (mouse sperm [1]; Fig. 2g replicates, 5 mM db-cAMP/500 μM IBMX, 5 μM TDI-10229 or 10 nM TDI-11861): 33.6897% and 30.4912% and 38.1667% and 17.5365% and 24% and 40.1452%
Acrosome reacted (%), ZP (mouse sperm [1]; Fig. 2g replicates, 50 heat-solubilized zona pellucidae, 5 μM TDI-10229 or 10 nM TDI-11861): 22.9233% and 33% and 26.2439% and 20.6667% and 34.5025% and 32.3333%
Acrosome reacted (%), basal (mouse sperm [1]; Fig. 2g replicates, 90 min capacitating media, 5 μM TDI-10229 or 10 nM TDI-11861): 31.9785% and 35% and 27.6378% and 28.974% and 29% and 25%
Acrosome reacted (%), ZP + db-cAMP/IBMX (mouse sperm [1]; Fig. 2g replicates, zona pellucidae, 5 mM db-cAMP/500 μM IBMX, 5 μM TDI-10229 or 10 nM TDI-11861): 42.963% and 32.2222% and 37.3475% and 28% and 29.3534% and 43%
bicarbonate-induced cAMP response, sperm directly isolated (epididymal mouse sperm [2]; 50 mg/kg i.p.): prevented bicarbonate-induced increase in cAMP
inhibition of bicarbonate-induced cAMP elevation and motility after ex vivo dilution (epididymal mouse sperm [2]; 50 mg/kg i.p.): persisted following ex vivo dilution
bicarbonate-induced cAMP response, sperm measured directly (epididymal mouse sperm [2]; 50 mg/kg oral, 1 hour, cauda sperm): no bicarbonate-induced increase in cAMP
normalized cAMP, diluted (epididymal mouse sperm [2]; Fig. 3a replicates, 50 mg/kg oral gavage, 100-fold dilution into inhibitor-free media, capacitating relative to non-capacitated, 50 mg/kg): 1.404 and 1.468 and 0.846 and 0.4392 and 0.6198 and 0.8825 and 1.178 and 0.8649 and 1.043
normalized cAMP, non-diluted (epididymal mouse sperm [2]; Fig. 3a replicates, 50 mg/kg oral gavage, capacitating relative to non-capacitated sperm of same mouse, 12 minutes, 50 mg/kg): 1.2234 and 1.098 and 0.3601 and 0.9436 and 0.9025 and 0.6956 and 0.2677 and 0.09176 and 0.3627
normalize cAMP, diluted (epididymal mouse sperm [2]; Fig. 3c replicates, 50 mg/kg i.p., 100-fold dilution into inhibitor-free media, capacitating relative to non-capacitated, 50 mg/kg): 0.9454 and 0.4612 and 0.4886 and 0.7809 and 1.256 and 0.4688 and 0.8437 and 0.776 and 0.4914 and 0.7724 and 0.3623
normalize cAMP, non-diluted (epididymal mouse sperm [2]; Fig. 3c replicates, 50 mg/kg i.p., capacitating relative to non-capacitated sperm of same mouse, 12 minutes, 50 mg/kg): 0.1221 and 0.9832 and 1.008 and 0.7764 and 0.7982 and 0.2443 and 0.1415 and 0.1173 and 0.5249 and 1.087 and 1.4
Beat frequency, Basal (human sperm [3]; distal 5 µm of flagellum, 5 μM TDI-10229 or 10 nM TDI-11861, mean ± SEM): 11.4 ± 1.3 Hz
Beat frequency, + HCO3- (human sperm [3]; distal 5 µm, 25 mM NaHCO3, 5 μM TDI-10229 or 10 nM TDI-11861, mean ± SEM): 11.0 ± 0.8 Hz
Beat frequency, Basal (mouse sperm [4]; distal 10 μm of flagellum, 5 μM TDI-10229 or 10 nM TDI-11861, mean ± SEM): 14.8 ± 1.0 Hz
Beat frequency, + HCO3- (mouse sperm [4]; distal 10 μm, 25 mM NaHCO3, 5 μM TDI-10229 or 10 nM TDI-11861, mean ± SEM): 22.7 ± 1.6 Hz
capacitation-induced pY pattern (epididymal mouse sperm [5]; diluted 100 fold): remained blocked
capacitation-induced pY pattern (epididymal mouse sperm [5]; swim out sperm mixed with equal volume capacitation media): blocked
earliest time of motility inhibition post i.p.-injection (epididymal mouse sperm [6]; 50 mg/kg i.p.): 15 min
recovery of sperm motility (epididymal mouse sperm [6]; 50 mg/kg i.p., 24 hours post-injection): most sperm from TDI-11861-injected mice had recovered motility
motility of epididymal sperm diluted ex vivo (epididymal mouse sperm [6]; 50 mg/kg oral): essentially immotile
motility (%) (epididymal mouse sperm [6]; Fig. 3b replicates, 50 mg/kg oral gavage, 1 hour, diluted 1:100 in inhibitor-free non-capacitating media, CASA, 50 mg/kg): 2.8% and 0.5% and 0.3% and 0.7% and 1.7% and 1.9% and 3.3% and 1.6% and 3.6% and 3.8% and 1.1%
motility (%), + cAMP (epididymal mouse sperm [6]; Fig. 3b replicates, 50 mg/kg oral gavage, 1 hour, in presence of 5 mM db-cAMP/500 μM IBMX, 50 mg/kg): 10.8% and 22.6% and 32.3% and 13.1% and 19.4% and 14.6% and 14% and 11.2%
progressive motility (%) (epididymal mouse sperm [6]; Fig. 4b, epididymal sperm): 0.9% and 1.3% and 2.1% and 0.4% and 1.5% and 0.8% and 0.3%
hyperactivated motility (%) (epididymal mouse sperm [6]; Fig. 4c, epididymal sperm): 0.8% and 0.4% and 1.6% and 0.2% and 0.1% and 0.6% and 0.3%
motility (%) (epididymal mouse sperm [6]; Fig. 5, time 0.25 h): 0.4% and 0.6% and 0.8% and 0.3% and 0.7% and 1.3% and 1%
motility (%) (epididymal mouse sperm [6]; Fig. 5, time 0.5 h): 3.4% and 0.5% and 1.4% and 4.6% and 1.7% and 0.9%
motility (%) (epididymal mouse sperm [6]; Fig. 5, time 2 h): 1.1% and 1.7% and 1.2% and 0.7% and 2.3% and 2.7%
motility (%) (epididymal mouse sperm [6]; Fig. 5, time 2.5 h): 0.8% and 6.3% and 0.7% and 1.3% and 0.9% and 0.4%
motility (%) (epididymal mouse sperm [6]; Fig. 5, time 3 h): 1.2% and 0.4% and 6.5% and 6.2% and 3.7%
motility (%) (epididymal mouse sperm [6]; Fig. 5, time 24 h): 22.8% and 19.1% and 22% and 33.1% and 20.5% and 20.6%
motility (%) (epididymal mouse sperm [6]; Fig. 3d, + cAMP, individual replicates): 17.3% and 12.5% and 13.3% and 33% and 16.6% and 14.6%
motility (%) (epididymal mouse sperm [6]; Fig. 3d, individual replicates): 3% and 0.6% and 2% (2×) and 1.9% and 3.8% and 2.2% and 2.3% and 1.4% and 0.9% (2×) and 2.5% and 0.4% and 0.2% and 1.1% and 2.8%
cAMP, capacitation media (mouse sperm [7]; [9]): 0.4536 pmol/10^6 sperm and 0.2982 pmol/10^6 sperm and 0.3279 pmol/10^6 sperm and 0.1875 pmol/10^6 sperm and 0.4476 pmol/10^6 sperm and 0.4575 pmol/10^6 sperm and 0.7152 pmol/10^6 sperm and 0.6672 pmol/10^6 sperm and 0.4645 pmol/10^6 sperm and 0.4351 pmol/10^6 sperm and 0.0606 pmol/10^6 sperm and 0.2667 pmol/10^6 sperm
cAMP, non-capacitation media (mouse sperm [7]; [9]): 1 pmol/10^6 sperm and 0.8029 pmol/10^6 sperm and 0.2251 pmol/10^6 sperm and 0.2037 pmol/10^6 sperm and 0.6722 pmol/10^6 sperm and 0.7415 pmol/10^6 sperm and 0.6566 pmol/10^6 sperm and 0.7427 pmol/10^6 sperm and 0.4253 pmol/10^6 sperm and 0.8706 pmol/10^6 sperm and 0.1092 pmol/10^6 sperm and 0.7462 pmol/10^6 sperm
cAMP, capacitation media (mouse sperm [7]; [10]): 0.677 pmol/10^6 sperm and 1.0488 pmol/10^6 sperm and 0.28 pmol/10^6 sperm and 0.63 pmol/10^6 sperm and 0.972 pmol/10^6 sperm and 0.1159 pmol/10^6 sperm and 0.3305 pmol/10^6 sperm and 0.9745 pmol/10^6 sperm and 1.058 pmol/10^6 sperm
cAMP, non-capacitation media (mouse sperm [7]; [10]): 0.555 pmol/10^6 sperm and 1.0234 pmol/10^6 sperm (2×) and 0.88 pmol/10^6 sperm and 0.438 pmol/10^6 sperm and 0.1502 pmol/10^6 sperm and 1.06 pmol/10^6 sperm and 0.8915 pmol/10^6 sperm and 1.0835 pmol/10^6 sperm
cAMP, capacitation media (human sperm [8]; [11]): 0.4536 pmol/10^6 sperm and 0.2982 pmol/10^6 sperm and 0.3279 pmol/10^6 sperm and 0.1875 pmol/10^6 sperm and 0.4476 pmol/10^6 sperm and 0.4575 pmol/10^6 sperm and 0.7152 pmol/10^6 sperm and 0.6672 pmol/10^6 sperm and 0.4645 pmol/10^6 sperm and 0.4351 pmol/10^6 sperm and 0.0606 pmol/10^6 sperm and 0.2667 pmol/10^6 sperm
cAMP, non-capacitation media (human sperm [8]; [11]): 0.6403 pmol/10^6 sperm and 0.8029 pmol/10^6 sperm and 0.2251 pmol/10^6 sperm and 0.2037 pmol/10^6 sperm and 0.6722 pmol/10^6 sperm and 0.7415 pmol/10^6 sperm and 0.6566 pmol/10^6 sperm and 0.7427 pmol/10^6 sperm and 0.4253 pmol/10^6 sperm and 0.8706 pmol/10^6 sperm and 0.1092 pmol/10^6 sperm and 0.7462 pmol/10^6 sperm
cAMP, capacitation media (human sperm [8]; [12]): 0.7435 pmol/10^6 sperm and 0.3279 pmol/10^6 sperm and 0.4575 pmol/10^6 sperm and 0.7152 pmol/10^6 sperm and 0.6672 pmol/10^6 sperm and 0.4645 pmol/10^6 sperm and 0.4351 pmol/10^6 sperm and 0.0606 pmol/10^6 sperm and 0.2667 pmol/10^6 sperm and 0.2982 pmol/10^6 sperm
cAMP, non-capacitation media (human sperm [8]; [12]): 0.059 pmol/10^6 sperm and 0.2015 pmol/10^6 sperm and 0.452 pmol/10^6 sperm and 0.1712 pmol/10^6 sperm and 1.016 pmol/10^6 sperm and 0.658 pmol/10^6 sperm and 0.9025 pmol/10^6 sperm and 0.216 pmol/10^6 sperm and 0.84 pmol/10^6 sperm and 0.1317 pmol/10^6 sperm
